Data: patent US10759813B2, “Neprilysin inhibitors” (THERAVANCE BIOPHARMA R&D IP, LLC, priority 2010, dated 2020)

Molecular target: human neprilysin (EC 3.4.24.11; NEP) (Homo sapiens (Human), UniProt P08473)
Assay: In vitro enzyme inhibition assay at human NEP (fluorogenic peptide substrate)
Type: biochemical
Conditions: pKi values at human NEP, recombinant human NEP
How it was run: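 pKi derived from apparent Ki fitted as v=v0/[1+(I/K′)] to Ex320/Em405 fluorescence. Compounds (pM to 10 μM) sat with recombinant human enzyme 30 min at 37 °C before 10 μM fluorogenic Mca peptide was added in HEPES pH 7.5 buffer with 10 μM ZnSO4; 20 min reaction, acetic acid quench.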

human neprilysin (EC 3.4.24.11; NEP), sequence (P08473 52-750): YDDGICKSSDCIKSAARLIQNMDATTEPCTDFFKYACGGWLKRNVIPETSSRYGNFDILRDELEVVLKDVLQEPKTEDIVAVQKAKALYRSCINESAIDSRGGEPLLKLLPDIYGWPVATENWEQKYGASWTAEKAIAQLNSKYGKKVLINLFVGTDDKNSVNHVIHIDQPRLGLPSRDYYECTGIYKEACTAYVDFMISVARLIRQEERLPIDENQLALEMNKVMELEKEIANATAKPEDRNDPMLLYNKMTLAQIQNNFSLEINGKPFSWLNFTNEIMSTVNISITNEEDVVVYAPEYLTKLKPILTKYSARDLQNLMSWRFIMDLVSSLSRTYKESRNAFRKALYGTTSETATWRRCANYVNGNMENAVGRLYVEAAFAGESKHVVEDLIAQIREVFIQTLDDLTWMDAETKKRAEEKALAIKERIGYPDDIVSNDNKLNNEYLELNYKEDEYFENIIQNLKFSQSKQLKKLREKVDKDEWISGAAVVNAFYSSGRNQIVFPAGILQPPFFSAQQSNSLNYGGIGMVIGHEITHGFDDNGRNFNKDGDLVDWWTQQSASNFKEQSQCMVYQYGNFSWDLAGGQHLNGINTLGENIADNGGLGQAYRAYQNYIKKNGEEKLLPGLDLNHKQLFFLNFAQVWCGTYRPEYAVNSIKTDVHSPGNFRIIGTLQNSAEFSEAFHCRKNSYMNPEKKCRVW

Which Ki does the source give for `O=C(N[C@H](Cc1ccc(-c2cccc(Cl)c2)cc1)C[C@@H](O)C(=O)O)c1ccc(=O)n(Cc2ccccc2)n1` [Example 18-48, (2R,4R)-4-[(1-Benzyl-6-oxo-1,6-dihydro-pyridazine-3-carbonyl)-amino]-5-(3′-chlorobiphenyl-4-yl)-2-hydroxy-pentanoic acid] here?
Its Ki is 1.26 to 10 nM.

`O=C(N[C@H](Cc1ccc(-c2ccccc2)cc1)CC(O)C(=O)O)c1cc(C(=O)N2CCOCC2)n[nH]1` (stereo partly drawn) [Example 15-53, (R)-5-Biphenyl-4-yl-2-hydroxy-4-{[5-(morpholine-4-carbonyl)-2H-pyrazole-3-carbonyl]amino}pentanoic acid] was tested. Which Ki did it give?
The Ki was 1.26 to 10 nM.

`O=C(N[C@@H](Cc1ccc(-c2cc(O)cc(Cl)c2)cc1)C[C@H](O)C(=O)O)c1ccc2nnn(O)c2c1` [Example 23-8, (2S,4S)-5-(3′-Chloro-5′-hydroxy-biphenyl-4-yl)-2-hydroxy-4-[(3-hydroxy-3H-benzotriazole-5-carbonyl)-amino]-pentanoic acid] was tested. Which pKi did it give?
Its pKi is ≥9.0.

How did the Ki turn out when `O=C(N[C@H](Cc1ccc(-c2ccccc2)cc1)CC(O)C(=O)O)c1cc(-c2ccc3ccccc3c2)[nH]n1` (stereo partly drawn) [Example 15-38, (R)-5-Biphenyl-4-yl-2-hydroxy-4-[(5-naphthalen-2-yl-1H-pyrazole-3-carbonyl)amino]-pentanoic acid] was run?
Its Ki is 1.26 to 10 nM.

With `O=C(N[C@H](Cc1ccc(-c2ccccc2)cc1)CC(O)C(=O)O)c1cc(C(=O)O)n(Cc2c(F)ccc(Cl)c2F)n1` (stereo partly drawn) [Example 15-16, 5-((R)-1-Biphenyl-4-ylmethyl-3-carboxy-3-hydroxy-propylcarbamoyl)-2-(3-chloro-2,6-difluorobenzyl)-2H-pyrazole-3-carboxylic acid] as the molecule, how does the Ki read?
The Ki was 1.26 to 10 nM.

With `O=C(Nc1cc(C(=O)N[C@H](Cc2ccc(-c3ccccc3)cc2)CC(O)C(=O)O)[nH]n1)c1ccccn1` (stereo partly drawn) [Example 15-100, (R)-5-Biphenyl-4-yl-2-hydroxy-4-({5-[(pyridine-2-carbonyl)-amino]-2H-pyrazole-3-carbonyl}-amino)-pentanoic acid] as the molecule, how does the Ki read?
Its Ki is 1.26 to 10 nM.

How did the Ki turn out when `O=C(O)c1cccc(Cn2nnc3cc(C(=O)N[C@H](Cc4ccc(-c5ccccc5)cc4)CC(O)C(=O)O)ccc32)c1` (stereo partly drawn) [Example 11-1, 3-[5-((R)-1-Biphenyl-4-ylmethyl-3-carboxy-3-hydroxypropylcarbamoyl)-benzotriazol-1-ylmethyl]-benzoic acid] was run?
The Ki was 1.26 to 10 nM.

With `O=C(N[C@H](Cc1ccc(-c2cccc(Cl)c2)cc1)C[C@@H](O)C(=O)O)c1cc(-c2cccnc2)[nH]n1` [Example 18-34, (2R,4R)-5-(3′-Chlorobiphenyl-4-yl)-2-hydroxy-4-[(5-pyridin-3-yl-1H-pyrazole-3-carbonyl)-amino]-pentanoic acid] as the molecule, how does the pKi read?
The pKi was ≥9.0.

With `O=C(N[C@H](Cc1ccc(-c2cccc(Cl)c2)cc1)C[C@@H](O)C(=O)O)c1cc(O)n(-c2ccccn2)n1` [Example 18-37, (2R,4R)-5-(3′-Chloro-biphenyl-4-yl)-2-hydroxy-4-[(5-hydroxy-1-pyridin-2-yl-1H-pyrazole-3-carbonyl)-amino]-pentanoic acid] as the molecule, how does the pKi read?
Its pKi is ≥9.0.

How did the pKi turn out when `C/C(=N\O)c1cc(C(=O)N[C@H](Cc2ccc(-c3ccccc3)cc2)C[C@@H](O)C(=O)O)[nH]n1` [Example 15-111, (2R,4R)-5-Biphenyl-4-yl-2-hydroxy-4-[(5-{1-[(E)-hydroxyimino]-ethyl}-2H-pyrazole-3-carbonyl)-amino]-pentanoic acid] was run?
Its pKi is ≥9.0.

With `COc1ccc(-c2cc(C(=O)N[C@H](Cc3ccc(-c4ccccc4)cc3)C[C@@H](O)C(=O)O)no2)cc1` [Example 12-20, (2R,4R)-5-Biphenyl-4-yl-2-hydroxy-4-{[5-(4-methoxy-phenyl)-isoxazole-3-carbonyl]-amino}-pentanoic acid] as the molecule, how does the Ki read?
Its Ki is 1.26 to 10 nM.

With `O=C(N[C@H](Cc1ccc(-c2ccccc2)cc1)CC(O)C(=O)O)c1cc(C(=O)O)n(Cc2cc(F)ccc2Cl)n1` (stereo partly drawn) [Example 15-10, 5-((R)-1-Biphenyl-4-ylmethyl-3-carboxy-3-hydroxy-propylcarbamoyl)-2-(2-chloro-5-fluorobenzyl)-2H-pyrazole-3-carboxylic acid] as the molecule, how does the Ki read?
The Ki was 1.26 to 10 nM.

`O=C(N[C@H](Cc1ccc(-c2cccc(Cl)c2)cc1)C[C@@H](O)C(=O)O)c1nn(-c2cccc(Cl)c2)c(=O)[nH]1` [Example 18-42, (2R,4R)-5-(3′-Chloro-biphenyl-4-yl)-4-{[1-(3-chloro-phenyl)-5-oxo-4,5-dihydro-1H-[1,2,4]triazole-3-carbonyl]-amino}-2-hydroxy-pentanoic acid] was tested. Which pKi did it give?
The pKi was ≥9.0.

With `O=C(N[C@H](Cc1ccc(-c2ccccc2)cc1)CC(O)C(=O)O)c1ccc(O)nn1` (stereo partly drawn) [Example 13-5, (R)-5-Biphenyl-4-yl-2-hydroxy-4-[(6-hydroxypyridazine-3-carbonyl)-amino]-pentanoic acid] as the molecule, how does the Ki read?
The Ki was 12.6 to 100 nM.

For `O=C(N[C@H](Cc1ccc(-c2ccccc2)cc1)C[C@@H](O)C(=O)O)c1cc(NC(=O)c2ccccc2Cl)n[nH]1` [Example 15-96, (2R,4R)-5-Biphenyl-4-yl-4-{[5-(2-chlorobenzoylamino)-2H-pyrazole-3-carbonyl]-amino}-2-hydroxy-pentanoic acid], which pKi is on record?
Its pKi is ≥9.0.

How did the Ki turn out when `COc1cccc(-c2cc(C(=O)N[C@H](Cc3ccc(-c4ccccc4)cc3)C[C@@H](O)C(=O)O)no2)c1` [Example 12-18, (2R,4R)-5-Biphenyl-4-yl-2-hydroxy-4-{[5-(3-methoxy-phenyl)-isoxazole-3-carbonyl]-amino}-pentanoic acid] was run?
The Ki was 1.26 to 10 nM.

How did the pKi turn out when `O=C(N[C@H](Cc1ccc(-c2ccccc2)cc1)C[C@@H](O)C(=O)O)c1cc(O)no1` [Example 7-B, (2R,4R)-5-Biphenyl-4-yl-2-hydroxy-4-[(3-hydroxyisoxazole-5-carbonyl)amino]pentanoic Acid] was run?
Its pKi is ≥9.0.

With `O=C(N[C@H](Cc1ccc(-c2ccccc2)cc1)C[C@@H](O)C(=O)O)c1cc(-c2ccccc2O)on1` [Example 12-21, (2R,4R)-5-Biphenyl-4-yl-2-hydroxy-4-{[5-(2-hydroxy-phenyl)-isoxazole-3-carbonyl]-amino}-pentanoic acid] as the molecule, how does the pKi read?
The pKi was ≥9.0.

Which Ki does the source give for `CCCc1cc(C(=O)N[C@H](Cc2ccc(-c3ccccc3)cc2)CC(O)C(=O)O)[nH]n1` (stereo partly drawn) [Example 15-74, (R)-5-Biphenyl-4-yl-2-hydroxy-4-[(5-propyl-2H-pyrazole-3-carbonyl)amino]-pentanoic acid] here?
The Ki was 12.6 to 100 nM.

Which pKi does the source give for `O=C(N[C@H](Cc1ccc(-c2ccccc2)cc1)C[C@@H](O)C(=O)O)c1cc(NC(=O)c2ccccc2Cl)on1` [Example 12-22, (2R,4R)-5-Biphenyl-4-yl-4-{[5-(2-chlorobenzoylamino)-isoxazole-3-carbonyl]-amino}-2-hydroxy-pentanoic acid] here?
Its pKi is ≥9.0.

For `CCOc1cc(C(=O)N[C@H](Cc2ccc(-c3cccc(Cl)c3)cc2)C[C@@H](O)C(=O)O)n[nH]1` [Example 18-40, (2R,4R)-5-(3′-Chloro-biphenyl-4-yl)-4-[(5-ethoxy-1H-pyrazole-3-carbonyl)-amino]-2-hydroxy-pentanoic acid], which pKi is on record?
Its pKi is ≥9.0.

`O=C(N[C@H](Cc1ccc(-c2ccccc2)cc1Cl)C[C@@H](O)C(=O)O)c1cnn[nH]1` [Example 20-2, (2R,4R)-5-(3-Chlorobiphenyl-4-yl)-2-hydroxy-4-[(3H-[1,2,3]triazole-4-carbonyl)-amino]-pentanoic acid] was tested. Which pKi did it give?
Its pKi is ≥9.0.

`CC(C)(O)c1cc(C(=O)N[C@H](Cc2ccc(-c3ccccc3)cc2)C[C@@H](O)C(=O)O)n[nH]1` [Example 8-B, (2R,4R)-5-Biphenyl-4-yl-2-hydroxy-4-{[5-(1-hydroxy-1-methylethyl)-1H-pyrazole-3-carbonyl]amino}pentanoic acid] was tested. Which pKi did it give?
Its pKi is ≥9.0.
